Assay results reported in US20070155782A1, “Nk-1 receptor antagonists anesthesia recovery” (priority 2004, published 2007).
“And” between values parts separate entries of the source, which are not always exact repeats. Identical values can stand only once.

How the values were obtained:
geriatric beagles = test: Experiment B: recovery from general anesthesia in beagle dogs, 0.5 mg/kg compound of Formula Ia; format: in vivo
Method: (§1) The patients utilized in the study were maintained in standard facilities with appropriate heating and ventilation. All dogs were placed under general anesthesia. The duration of anesthesia, time to extubation and time to sternal recumbency were recorded. Also noted were behaviors indicative of dysphoria such as vocalization and purposeless movement. A visual analog scale (“VAS”) was used to score the “quality” of the entire recovery period.
(§2) As used herein, the term “duration of anesthesia” is the time in minutes elapsed between intubation and cessation of anesthetic gases.
(§3) As used herein, the term “time to extubation” is the time in minutes elapsed between cessation of anesthetic gases and the need for removal of the endotracheal tube due to spontaneous swallowing.
(§4) As used herein, the term “time to Sternal Recumbency” is the time in minutes elapsed between cessation of anesthetic gases and the time the dog could physically place and maintain itself in sternal recumbency.
(§5) Evaluation of Recovery Period. A visual analog scale (“VAS”) was used to score the “quality” of the recovery period (0=smooth recovery, 10=rough recovery). Factors considered included, but were not limited to, vocalization, purposeless movement as well as the subjective degree of dysphoria experienced by the dog. The study director, who was blinded to treatment assignments, assigned recovery scores.
(§6) Statistical Analysis. Data from two trials conducted according to the above procedure were combined for analysis purposes. The data in the following Tables and Figures are mean±standard deviation. Duration of anesthesia, time to extubation and time to sternal recumbency data were analyzed using a paired t-test for means in Excel. Recovery VAS data were analyzed using SAS Statistical Software.
Fifteen experimental geriatric beagles, weighing 9-16 kilograms and undergoing anesthesia for dental prophylaxis, were used in this study. All dogs were fasted overnight prior to anesthesia. Experimental dogs were subcutaneously administered 0.5 mg/kg compound of Formula Ia at the time of pre-anesthetic medication. Control dogs received no treatment in addition to routine pre-anesthesia medications. The duration of anesthesia, time to extubation and time to sternal recumbency were recorded.
(§7) Preparation of 0.5 mg/kg compound of Formula Ia dose: Formulations were prepared by dissolving the compound of Formula Ia (10 mg/mL) and SBE-CD (10%) in distilled water to form a solution. The solution was sonicated to facilitate complete dissolution and filtered through a 0.22 μm Millipore syringe top filter prior to injection.
Administration of Dose: Solutions of compound of Formula Ia (0.5 mg/kg) were administered by subcutaneous injection.
Anesthetic Protocol: General anesthesia was induced and maintained using the following protocol:
(1) Preanesthetic administration: the Experimental patients were treated with subcutaneous administration of a dose of compound of Formula Ia, as prepared above. Both experimental and control patients were administered glycopyrrolate (0.01 mg/kg SC), butorphanol (0.1 mg/kg SC) and penicillin (30,000 units/kg SC)
(2) During the induction period, the patients were administered intravenous methohexital (8 mg/kg IV).
(3) The patients were then maintained with inhalant isoflurane at concentrations ranging from 0.5 to 3%.
The patients were monitored continuously during the anesthetic and recovery periods.

mature mongrel dogs = test: Experiment A: anesthetic recovery in dogs, 1.0 mg/kg compound of Formula Ia vs saline control; format: in vivo
Method: as §1, §2, §3, §4, §5, §6
Experimental mature mongrel dogs, both male and female, weighing about 16-26 kilograms, were subcutaneously administered 1.0 mg/kg compound of Formula Ia one hour prior to preanesthetic administration. Control dogs were subcutaneously administered an equivalent volume of saline solution one hour prior to preanesthetic administration. The duration of anesthesia, time to extubation and time to sternal recumbency were recorded. The patients were monitored continuously during the anesthetic and recovery periods.
as §7, with “1.0” for “0.5”
Administration of Dose: Solutions of compound of Formula Ia (1.0 mg/kg) or saline placebo (0.1 mL/kg) were administered by subcutaneous injection (“SC”).
Anesthetic Protocol: General anesthesia was induced using the following protocol: (1) One hour prior to preanesthetic administration, the patients were treated with subcutaneous administration of either a dose of compound of Formula Ia, as prepared above, or the saline control (0.1 mL/kg).
(2) Thirty (30) minutes prior to induction (preanesthetic), the patients were administered glycopyrrolate (0.01 mg/kg SC) and butorphanol (0.1 mg/kg SC).
(3) During the induction period, the patients were administered intravenous methohexital (8 mg/kg IV).
(4) The patients were then maintained with inhaled isoflurane at concentrations ranging from 0.5 to 3%.

[1] = 0.5 mg/kg SC at time of pre-anesthetic medication, beagle dogs
[2] = 1 mg/kg SC one hour prior to preanesthetic, individual dogs
[3] = 1 mg/kg SC, Mean ± SD of 12 dogs

Structure (SMILES): COc1ccc(C(C)(C)C)cc1CN[C@H]1C2CCN(CC2)[C@H]1C(c1ccccc1)c1ccccc1 [Compound of Formula Ia, (2S,3S)-2-benzhydryl-N-(5-tert-butyl-2-methoxybenzyl)quinuclidin-3-amine]
- Time to extubation, experimental vs control group (geriatric beagles; 0.5 mg/kg SC): no statistical difference
- Time to sternal recumbency, experimental vs control group (geriatric beagles; 0.5 mg/kg SC): no statistical difference
- Visual analog score for smoothness of recovery period, experimental vs control group (geriatric beagles; 0.5 mg/kg SC): no statistical difference
- Time to Extubation Mean ± SD (geriatric beagles; [1]): 5.00 ± 4.47 min
- Time to Sternal Recumbency Mean ± SD (geriatric beagles; [1]): 10.86 ± 10.67 min
- Subjective appearance during the recovery period vs control dogs (geriatric beagles; 0.5 mg/kg SC during the preoperative period): tended to look less anxious
- Recovery Score Mean ± SD (geriatric beagles; 0.5 mg/kg SC, VAS 0=smooth, 10=rough, beagle dogs): 3.46 ± 1.54 cm
- Treated dogs that received visual analog scores of less than 5 cm (geriatric beagles; 0.5 mg/kg SC, control dogs 4 out of 8): 7 out of 7
- Time to extubation compared with saline group (mature mongrel dogs; 1 mg/kg SC): similar
- Time to sternal recumbency compared with saline group (mature mongrel dogs; 1 mg/kg SC): similar
- Time to Extubation (mature mongrel dogs; [2]): 2 min (4×) and 1 min (2×) and 3 min and 5 min (3×) and 4 min (2×)
- Time to Sternal Recumbency (mature mongrel dogs; [2]): 4 min and 3 min (4×) and 6 min (2×) and 1 min and 11 min and 9 min (2×) and 7 min
- Time to Extubation (mature mongrel dogs; [3]): 3 ± 2 min
- Time to Sternal Recumbency (mature mongrel dogs; [3]): 5 ± 3 min
- Recovery Quality (mature mongrel dogs; 1 mg/kg SC, VAS 0=smooth recovery, 10=rough recovery, individual dogs): 7.1 cm and 1.4 cm and 2.1 cm and 0.7 cm and 0.9 cm and 3.9 cm and 0.2 cm and 1.1 cm and 1.8 cm and 1.9 cm and 4.7 cm and 2.4 cm
- Recovery Quality (mature mongrel dogs; 1 mg/kg SC, VAS 0=smooth, 10=rough, Mean ± SD of 12 dogs, p=0.02 vs saline): 2.3 ± 2 cm
- Recovery scores compared with saline (mature mongrel dogs; 1 mg/kg SC, p=0.02): significantly lower recovery scores
- Recovery VAS scores lower than saline controls (mature mongrel dogs; 1 mg/kg SC, vs saline controls): 43.9%
